By EC50 is commonly meant the concentration that produces a half-maximal response. By IC50 is commonly meant the point on the concentration scale where inhibition reaches its midpoint.

In test [1] the test system is KMS11 (human myeloma cell line). Description: Cell proliferation assay (CellTiter-Glo), KMS11. It counts as cell-based. The note with it: KMS11-Luc cells. Put shortly:
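KMS11 cells in IMDM with 10% FBS and sodium pyruvate, seeded at 2000 cells/well on assay day. Compound added at 2× to equal volume of cells, incubated 3 days at 37° C. Viability read by CellTiter-Glo luminescence; EC50 derived.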
On the technique in general: ATP-based viability assays read luminescence as a measure of living cells.

In test [2] the target is GSK3β (Homo sapiens, UniProt P49841). The test is described as follows: GSK3β ATP depletion assay. It counts as biochemical. The note with it: read-out: GSK3b IC50. A digest of the protocol: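 Human GSK3β (5 nM) preincubated 15 min with 10 μM biotinylated phospho-CREB peptide in pH 7.5 Tris buffer (15 mM MgCl2, 1 mM DTT, 0.1% BSA, 2.5% DMSO). Reaction started with 2 μM ATP and run to about 50% ATP depletion. Remaining ATP measured by KinaseGlo luminescence.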
Sequence of GSK3β (P49841 whole entry, species assumed): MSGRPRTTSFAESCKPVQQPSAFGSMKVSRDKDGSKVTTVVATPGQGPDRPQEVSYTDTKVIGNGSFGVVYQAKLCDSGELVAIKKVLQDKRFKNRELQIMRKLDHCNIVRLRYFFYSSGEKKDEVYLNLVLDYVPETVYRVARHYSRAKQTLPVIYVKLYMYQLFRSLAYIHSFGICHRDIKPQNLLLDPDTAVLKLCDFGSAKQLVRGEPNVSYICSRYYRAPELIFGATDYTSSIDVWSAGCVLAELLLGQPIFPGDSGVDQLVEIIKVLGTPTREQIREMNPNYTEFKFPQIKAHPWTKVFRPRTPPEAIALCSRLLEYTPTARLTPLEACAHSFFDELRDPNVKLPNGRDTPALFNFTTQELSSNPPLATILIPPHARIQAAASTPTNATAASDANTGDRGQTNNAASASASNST

The target of test [3] is PIM1 (Homo sapiens, UniProt P11309). The test is described as follows: KinaseGlo Pim1 ATP depletion assay. It counts as biochemical. A digest of the protocol: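 2.5 nM PIM1 preincubated 15 min with compound and 40 μM BAD peptide in 50 mM HEPES pH 7.5, 5 mM MgCl2, 1 mM DTT, 0.05% BSA, 2.5% DMSO. The reaction was started with 20 μM ATP (final) and run to about 50% ATP depletion. Remaining ATP read by KinaseGlo Plus luminescence to give IC50.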
Sequence of PIM1 (P11309 whole entry): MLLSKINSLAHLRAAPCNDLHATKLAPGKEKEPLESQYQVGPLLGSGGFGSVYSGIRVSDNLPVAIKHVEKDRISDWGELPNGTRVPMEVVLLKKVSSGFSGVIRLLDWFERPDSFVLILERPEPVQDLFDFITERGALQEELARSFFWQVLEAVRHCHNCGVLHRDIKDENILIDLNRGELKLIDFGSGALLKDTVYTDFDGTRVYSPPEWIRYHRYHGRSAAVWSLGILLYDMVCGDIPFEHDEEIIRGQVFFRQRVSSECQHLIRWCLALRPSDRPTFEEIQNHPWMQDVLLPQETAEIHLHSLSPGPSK

Test [4] addresses PIM3 (Homo sapiens, UniProt Q86V86). Description: KinaseGlo Pim3 ATP depletion assay. It counts as biochemical. Put shortly:
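Kinase was preincubated 15 min with BAD peptide in HEPES pH 7.5/MgCl2/DTT/BSA before ATP was added. Final concentrations were 40 μM ATP, 100 μM BAD peptide and 2.5% DMSO, with 5 nM enzyme. The reaction ran to ~50% ATP depletion and remaining ATP was read by KinaseGlo Plus luminescence.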
On the technique in general: Kinase-Glo measures the ATP left after a reaction by luminescence.

In test [5] the target is PIM2 (Homo sapiens, UniProt Q9P1W9). Description: KinaseGlo Pim2 ATP depletion assay. It counts as biochemical. Put shortly: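 Luminescent ATP-depletion read-out of PIM2 phosphorylating BAD peptide (RSRHSSYPAGT-OH). Final conditions: 5 nM PIM2, 4 μM ATP, 10 μM peptide, 2.5% DMSO in 50 mM HEPES pH 7.5, 5 mM MgCl2, 1 mM DTT, 0.05% BSA. Enzyme–peptide preincubated 15 min with compound; reaction run to ~50% ATP depletion.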
Sequence of PIM2 (Q9P1W9 whole entry): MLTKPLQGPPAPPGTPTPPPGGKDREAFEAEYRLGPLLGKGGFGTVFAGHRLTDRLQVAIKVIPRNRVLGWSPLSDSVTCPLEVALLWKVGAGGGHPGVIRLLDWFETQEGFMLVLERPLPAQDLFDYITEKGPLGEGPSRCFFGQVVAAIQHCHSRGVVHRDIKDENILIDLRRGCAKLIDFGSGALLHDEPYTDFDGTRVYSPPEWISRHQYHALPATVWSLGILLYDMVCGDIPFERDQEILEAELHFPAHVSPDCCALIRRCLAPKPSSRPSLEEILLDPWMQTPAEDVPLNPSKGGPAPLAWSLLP

Turning to `C=C1[C@@H](O)C[C@@H](c2ccncc2NC(=O)c2ccc(F)c(-c3c(F)cccc3F)n2)OC12CC2` [Example 7, 6-(2,6-difluorophenyl)-5-fluoro-N-(4-((5S,7S)-7-hydroxy-8-methylene-4-oxaspiro[2.5]octan-5-yl)pyridin-3-yl)picolinamide], the EC50 in test [1] (Homo sapiens, KMS-11) was > 10 µM. For the same compound, the IC50 stood at 879 nM in test [2], 8 nM in test [3], 17 nM in test [4] and 151 nM in test [5].
In the same order, the values of `Nc1cnc(-c2c(F)cccc2F)nc1C(=O)Nc1cnccc1[C@H]1C[C@@H](O)[C@@]2(O)CCC[C@H]2O1` [Example 180, 5-amino-2-(2,6-difluorophenyl)-N-(4-((2R,4R,4aS,7aR)-4,4a-dihydroxyoctahydrocyclopenta[b]pyran-2-yl)pyridin-3-yl)pyrimidine-4-carboxamide] are > 10 µM, 101 nM, 8.4 nM, 7.2 nM and 10.6 nM.
In the same order, the values of `C[C@@H]1O[C@H](c2ccncc2NC(=O)c2csc(-c3c(F)cccc3F)n2)[C@@H](F)[C@H](O)[C@@]1(C)O` (stereo in doubt) [Example 70, 2-(2,6-difluorophenyl)-N-(4-((2R,3S,4R,5R,6S)-3-fluoro-4,5-dihydroxy-5,6-dimethyltetrahydro-2H-pyran-2-yl)pyridin-3-yl)thiazole-4-carboxamide] are > 10 µM, 331 nM, 1 nM, 19 nM and 323 nM.
`N#C[C@H]1OC(c2ccncc2NC(=O)c2nc(-c3c(F)cccc3F)c(F)cc2N)=C[C@@H](O)[C@@H]1O` [Example 4, 3-amino-N-(4-((2R,3S,4R)-2-cyano-3,4-dihydroxy-3,4-dihydro-2H-pyran-6-yl)pyridin-3-yl)-6-(2,6-difluorophenyl)-5-fluoropicolinamide] showed a concentration giving a half-maximal response (EC50) in test [1] (Homo sapiens, KMS-11) of 7.24 µM. Besides, the IC50 in test [2] turned out to be 268 nM; in test [3], 1.1 nM; in test [4], 3.1 nM; in test [5] it was 4 nM.
Turning to `N#CC[C@H]1O[C@@H](c2ccncc2NC(=O)c2nc(-c3c(F)cccc3F)ncc2N)C[C@@H](O)[C@@H]1O` [Example 153, 5-amino-N-(4-((2R,4R,5S,6R)-6-(cyanomethyl)-4,5-dihydroxytetrahydro-2H-pyran-2-yl)pyridin-3-yl)-2-(2,6-difluorophenyl)pyrimidine-4-carboxamide], the concentration for a half-maximal effect (EC50) in test [1] is > 10 µM. Also, the IC50 in test [2] is 235 nM; in test [3], 23.6 nM; in test [4], 13.5 nM; in test [5] it was 26.7 nM.
Consider `Nc1cnc(-c2c(F)cccc2F)nc1C(=O)Nc1cnccc1[C@@H]1C[C@H](O)[C@]2(O)CCC[C@@H]2O1` [Example 182, 5-amino-2-(2,6-difluorophenyl)-N-(4-((2S,4S,4aR,7aS)-4,4a-dihydroxyoctahydrocyclopenta[b]pyran-2-yl)pyridin-3-yl)pyrimidine-4-carboxamide], for which the concentration giving a half-maximal response (EC50) in test [1] (Homo sapiens, KMS-11) was > 10 µM. Besides, the half-maximal inhibitory concentration (IC50) in test [2] turned out to be 2670 nM; in test [3], 539 nM; in test [4] it was 951 nM; in test [5] it was 2780 nM.
On to `O=C(Nc1cnccc1[C@@H]1C[C@H](O)[C@]2(O)CCC[C@@H]2O1)c1ccc(F)c(-c2c(F)cccc2F)n1` [Example 188, 6-(2,6-difluorophenyl)-N-(4-((2S,4S,4aR,7aS)-4,4a-dihydroxyoctahydrocyclopenta[b]pyran-2-yl)pyridin-3-yl)-5-fluoropicolinamide], for which, in test [1] (Homo sapiens, KMS-11), the EC50 is > 10 µM. The IC50 in test [2] came to 731 nM; in test [3], 34.5 nM; in test [4], 144 nM; in test [5] it was 318 nM.
In the same order, the values of `O=C(Nc1cnccc1[C@@H]1CCCCO1)c1ccc(F)c(-c2c(F)cccc2F)n1` [Example 133, (S)-6-(2,6-difluorophenyl)-5-fluoro-N-(4-(tetrahydro-2H-pyran-2-yl)pyridin-3-yl)picolinamide] are > 10 µM, 2200 nM, 3 nM, 10 nM and 214 nM.
The matching figures for `Nc1cc(F)c(-c2ccccc2F)nc1C(=O)Nc1cnccc1C1=CC(=O)[C@H](O)[C@@H](CCl)O1` [Example 151, 3-amino-N-(4-((2S,3R)-2-(chloromethyl)-3-hydroxy-4-oxo-3,4-dihydro-2H-pyran-6-yl)pyridin-3-yl)-5-fluoro-6-(2-fluorophenyl)picolinamide]: > 10 µM, 1430 nM, 5.2 nM, 25.1 nM and 84.2 nM.
With `CC[C@]1(O)[C@H](O)C[C@H](c2ccncc2NC(=O)c2ccc(F)c(-c3c(F)cccc3F)n2)O[C@@H]1C` (stereo in doubt) [Example 77, 6-(2,6-difluorophenyl)-N-(4-((2R,4R,5S,6R)-5-ethyl-4,5-dihydroxy-6-methyltetrahydro-2H-pyran-2-yl)pyridin-3-yl)-5-fluoropicolinamide], it took 6.4 µM to reach a half-maximal effect in test [1] (Homo sapiens, KMS-11) (EC50). For the same compound, the IC50 came to 4890 nM in test [2], 50 nM in test [3], 236 nM in test [4] and 756 nM in test [5].
In the same order, the values of `CC1(C)O[C@H](c2ccncc2NC(=O)c2ccc(F)c(-c3c(F)cccc3F)n2)C[C@@H](O)[C@H]1O` [Example 91, 6-(2,6-difluorophenyl)-N-(4-((2S,4R,5R)-4,5-dihydroxy-6,6-dimethyltetrahydro-2H-pyran-2-yl)pyridin-3-yl)-5-fluoropicolinamide] are 7.1 µM, 171 nM, 3 nM, 13 nM and 47 nM.
For `C[C@H]1[C@H](O)C[C@H](c2ccncc2NC(=O)c2ccc(F)c(-c3c(F)cccc3F)n2)O[C@@H]1C` (stereo in doubt) [Example 97, 6-(2,6-difluorophenyl)-5-fluoro-N-(4-((2R,4R,5S,6R)-4-hydroxy-5,6-dimethyltetrahydro-2H-pyran-2-yl)pyridin-3-yl)picolinamide], the EC50 in test [1] (Homo sapiens, KMS-11) was > 10 µM. Moreover, the IC50 was determined as 313 nM in test [2], 5 nM in test [3], 37 nM in test [4] and 263 nM in test [5].
The matching figures for `C[C@H]1O[C@@H](c2ccncc2NC(=O)c2csc(-c3c(F)cccc3F)n2)C[C@@H](O)[C@@H]1O` (stereo in doubt) [Example 136, 2-(2,6-difluorophenyl)-N-(4-((2R,4R,5S,6R)-4,5-dihydroxy-6-methyltetrahydro-2H-pyran-2-yl)pyridin-3-yl)thiazole-4-carboxamide]: > 10 µM, 165 nM, 18 nM, 13 nM and 363 nM.
In test [1] (Homo sapiens, KMS-11), `O=C(Nc1cnccc1[C@H]1C[C@@H](O)[C@@]2(O)CCCC[C@H]2O1)c1ccc(F)c(-c2c(F)cccc2F)n1` [Example 174, 6-(2,6-difluorophenyl)-N-(4-((2R,4R,4aS,8aR)-4,4a-dihydroxyoctahydro-2H-chromen-2-yl)pyridin-3-yl)-5-fluoropicolinamide] displayed a 50% effective concentration (EC50) of 2.63 µM. For the same compound, the IC50 in test [2] is 19.8 nM; in test [3], 0.5 nM; in test [4] it was 1.6 nM; in test [5] it was 1.3 nM.

Values taken from patent US20130109682A1, “CYCLIC ETHER COMPOUNDS USEFUL AS KINASE INHIBITORS” (NOVARTIS AG, priority 2010, published 2013).
